Read-outs that look alike come from different tables or passages of the source. Each block holds one molecule with its values, some of them ahead of it.
Target: T1, recombinant full-length HSET (Homo sapiens, UniProt Q9BW19)
T1 construct: 5 nM full-length human N-terminal His-tag HSET; His-tag (N)
T1 sequence (Q9BW19 1-673): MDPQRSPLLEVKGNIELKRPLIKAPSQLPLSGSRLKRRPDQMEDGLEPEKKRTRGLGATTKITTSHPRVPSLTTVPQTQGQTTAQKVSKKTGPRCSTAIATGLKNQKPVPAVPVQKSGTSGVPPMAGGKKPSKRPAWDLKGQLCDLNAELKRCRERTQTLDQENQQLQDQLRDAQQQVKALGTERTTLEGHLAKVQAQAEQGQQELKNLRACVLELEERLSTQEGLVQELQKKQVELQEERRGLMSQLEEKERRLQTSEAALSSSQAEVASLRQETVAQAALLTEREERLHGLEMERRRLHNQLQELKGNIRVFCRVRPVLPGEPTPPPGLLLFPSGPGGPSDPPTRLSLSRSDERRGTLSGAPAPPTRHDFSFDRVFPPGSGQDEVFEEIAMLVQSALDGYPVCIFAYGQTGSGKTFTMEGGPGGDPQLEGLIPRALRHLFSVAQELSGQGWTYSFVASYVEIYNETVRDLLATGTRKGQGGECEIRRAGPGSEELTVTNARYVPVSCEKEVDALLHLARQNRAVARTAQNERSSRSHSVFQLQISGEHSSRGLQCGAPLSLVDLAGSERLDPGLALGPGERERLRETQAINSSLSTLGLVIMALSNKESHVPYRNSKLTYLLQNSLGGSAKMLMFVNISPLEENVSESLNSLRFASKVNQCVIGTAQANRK
Assay: ADP-Glo HSET assay (3 μM ATP), microtubule-stimulated ATPase
Type: biochemical
Details: for IC50: read-out: HSET ADP-Glo IC50; for HSET inhibitory activity (in words): HSET ADP-Glo
Protocol: The HSET or Eg5 ATPase activity was measured using the ADP-Glo Kinase Assay kit (Promega, V9102). The assays were run using final concentrations of 5 nM full-length human N-terminal His-tag HSET or 4 nM GST-tagged Eg5 motor domain protein (Cytoskeleton, EG01) and an assay buffer containing 20 mM HEPES pH 6.8, 10 mM MgCl2, 0.25 mM EGTA, 0.4 mM Triton X-100, and 1 mM DTT. Preformed microtubules (Universal Biologicals Cambridge, bovine MT001-XL, or porcine MT002-XL), which were reconstituted in 15 mM PIPES pH 7, 1 mM MgCl2, and 20 μM paclitaxel, were present at a final assay concentration of 70 μg/mL. A reaction volume of 5 μL was used in Proxiplate 384 plus white assay plates (PerkinElmer, 6008280). To measure compound inhibition, 100 nL of compound dissolved in DMSO or DMSO alone was preincubated with the HSET and microtubules for 10 min before 3 μM Ultra-Pure ATP was added to start the ATPase reaction for the 3 μM ATP HSET assay. For the 500 μM ATP HSET assay, the addition of 500 μM Ultra-Pure ATP was used. For the Eg5 ATPase assay, 4.8 μM Ultra-Pure ATP was used. All reactions were incubated at 25 °C for 80 min and then stopped by the addition of 5 μL of the ADP-Glo reagent. 10 μL of Kinase Detection Reagent was then added after a further 45 min of incubation. The luminescence was read after 45 min on a PheraStar FSX plate reader (BMG Labtech). The data processing was performed using Dotmatics Studies software package. Percentage inhibition was determined based on normalization to high controls (0% inhibition, all reagents with 100 nL of DMSO alone) and low controls (100% inhibition […], without HSET). The IC50 values for each compound were determined using a four-parameter logistic curve fit of % inhibition versus concentration.

[1] = LE = −1.4Log(IC50 [M])/number of non-hydrogen atoms (Table 2)
[2] = LLE = −Log(IC50 [M]) – cLogP (MoKa) (Table 2)
[3] = preformed microtubules, 3 μM ATP, mean (±SD) n ≥ 3, >200 from a single determination (Table 2)
[4] = LE = −1.4Log(IC50 [M])/number of non-hydrogen atoms (Table 1)
[5] = LLE = −Log(IC50 [M]) – cLogP (MoKa) (Table 1)
[6] = preformed microtubules, 3 μM ATP, mean (±SD) n ≥ 3, >200 from a single determination (Table 1)

LE [1]: 0.30
LLE [2]: 4.7
IC50 [3]: 0.157 µM
Compound: CCCOC(=O)c1cc(NC(=O)CCNC(=O)c2cccc(-c3noc(C)n3)c2)nn1C [Compound 28, Propyl 1-Methyl-3-(3-(3-(5-methyl-1,2,4-oxadiazol-3-yl)benzamido)propanamido)-1H-pyrazole-5-carboxylate]

LE [1]: 0.19
LLE [2]: 2.1
IC50 [3]: 44.4 µM
fold reduction in HSET potency (relative to 13): 700 fold
Compound: CCOC(=O)c1sc(NC(=O)CCN(C)C(=O)c2cccc(-c3noc(C)n3)c2)nc1C [Compound 24, Ethyl 4-Methyl-2-(3-(N-methyl-3-(5-methyl-1,2,4-oxadiazol-3-yl)benzamido)propanamido)thiazole-5-carboxylate]

LE [1]: 0.32
LLE [2]: 4.1
IC50 [3]: 0.061 µM
Compound: CCOC(=O)c1sc(NC(=O)C[C@H](C)NC(=O)c2cccc(-c3noc(C)n3)c2)nc1C [Compound 30, Ethyl 4-Methyl-2-[[(3S)-3-[[3-(5-methyl-1,2,4-oxadiazol-3-yl)benzoyl]amino]butanoyl]amino]thiazole-5-carboxylate]

LE [4]: 0.29
LLE [5]: 2.2
IC50 [6]: 2.32 µM
Compound: CCOC(=O)c1sc(NC(=O)CCNC(=O)c2cccc(CC)c2)nc1C [Compound 5, Ethyl 2-(3-(3-Ethylbenzamido)propanamido)-4-methylthiazole-5-carboxylate]

HSET inhibitory activity (in words): abolished the HSET activity
IC50 [3]: > 200 µM
Compound: CCOC(=O)c1sc(NC(=O)CCCNC(=O)c2cccc(-c3noc(C)n3)c2)nc1C [Compound 22, Ethyl 4-Methyl-2-(4-(3-(5-methyl-1,2,4-oxadiazol-3-yl)benzamido)butanamido)thiazole-5-carboxylate]

LE [1]: 0.29
LLE [2]: 3.4
IC50 [3]: 0.288 µM
Compound: CCOC(=O)c1sc(NC(=O)C[C@@H](C)NC(=O)c2cccc(-c3noc(C)n3)c2)nc1C [Compound 31, Ethyl 4-Methyl-2-[[(3R)-3-[[3-(5-methyl-1,2,4-oxadiazol-3-yl)benzoyl]amino]butanoyl]amino]thiazole-5-carboxylate]

HSET inhibitory activity (in words): ablated the activity
IC50 [6]: > 200 µM
Compound: CCOC(=O)c1sc(NC(=O)CCNC(=O)C2CCCC(C)C2)nc1C (centres unmarked) [Compound 10, Ethyl 4-Methyl-2-(3-(3-methylcyclohexane-1-carboxamido)propanamido)thiazole-5-carboxylate]

inhibition at 4 µM (4μM compound, 3 μM ATP): 50%
fold reduction in HSET potency (relative to 13): 65 fold
IC50 (supplementary CSV): > 4 µM
Compound: CCOC(=O)c1cnc(NC(=O)CCNC(=O)c2cccc(-c3noc(C)n3)c2)s1 [Compound 19, Ethyl 2-(3-(3-(5-Methyl-1,2,4-oxadiazol-3-yl)benzamido)propanamido)thiazole-5-carboxylate]

IC50 [3]: > 200 µM
fold reduction in HSET potency (relative to 13): 3000 fold
Compound: Cc1csc(NC(=O)CCNC(=O)c2cccc(-c3noc(C)n3)c2)n1 [Compound 20, 3-(5-Methyl-1,2,4-oxadiazol-3-yl)-N-(3-((4-methylthiazol-2-yl)amino)-3-oxopropyl)benzamide]

LE [4]: 0.25
LLE [5]: 1.2
IC50 [6]: 2.44 µM
Compound: CCOC(=O)c1sc(NC(=O)CCNC(=O)c2cccc(-c3ccccc3)c2)nc1C [Compound 12, Ethyl 2-(3-([1,1′-Biphenyl]-3-carboxamido)propanamido)-4-methylthiazole-5-carboxylate]

LE [4]: 0.25
LLE [5]: 2.8
IC50 [6]: 2.1 µM
fold reduction in HSET potency (relative to 13): 33 fold
Compound: CCOC(=O)c1sc(NC(=O)CCNC(=O)c2cccc(-c3noc(CC)n3)c2)nc1C [Compound 14, Ethyl 2-(3-(3-(5-Ethyl-1,2,4-oxadiazol-3-yl)benzamido)propanamido)-4-methylthiazole-5-carboxylate]

The remaining lines, values behind:

Compound: CCOC(=O)c1sc(NC(=O)CCNC(=O)c2cccc(OC)c2)nc1C [Compound 11, Ethyl 2-(3-(3-Methoxybenzamido)propanamido)-4-methylthiazole-5-carboxylate]
LE [4]: 0.28
LLE [5]: 2.8
IC50 [6]: 3.54 µM

Compound: CCOC(=O)c1nc(NC(=O)CCNC(=O)c2cccc(-c3noc(C)n3)c2)cn1C [Compound 29, Ethyl 1-Methyl-4-(3-(3-(5-methyl-1,2,4-oxadiazol-3-yl)benzamido)propanamido)-1H-imidazole-2-carboxylate]
HSET inhibitory activity (in words): no HSET inhibition
IC50 [3]: > 200 µM

Compound: CCOC(=O)c1sc(NC(=O)CCNC(=O)c2cccc(-c3nc(C)no3)c2)nc1C [Compound 17, Ethyl 4-Methyl-2-(3-(3-(3-methyl-1,2,4-oxadiazol-5-yl)benzamido)propanamido)thiazole-5-carboxylate]
LE [4]: 0.32
LLE [5]: 4.3
IC50 [6]: 0.101 µM

Compound: CCOC(=O)c1sc(N(C)C(=O)CCNC(=O)c2cccc(-c3noc(C)n3)c2)nc1C [Compound 23, Ethyl 4-Methyl-2-(N-methyl-3-(3-(5-methyl-1,2,4-oxadiazol-3-yl)benzamido)propanamido)thiazole-5-carboxylate]
LE [1]: 0.31
LLE [2]: 4.6
IC50 [3]: 0.089 µM

Compound: CCOC(=O)c1sc(NC(=O)CCNC(=O)c2cccc(Cl)c2)nc1C [Compound 6, Ethyl 2-(3-(3-Chlorobenzamido)propanamido)-4-methylthiazole-5-carboxylate]
HSET inhibitory activity (in words): ablated the activity
IC50 [6]: > 200 µM

Compound: CCOC(=O)c1sc(NC(=O)CCNC(=O)c2ccccc2)nc1C [Compound 9, Ethyl 2-(3-Benzamidopropanamido)-4-methylthiazole-5-carboxylate]
HSET inhibitory activity (in words): ablated the activity
IC50 [6]: > 200 µM

Compound: CCOC(=O)c1ccc(NC(=O)CCNC(=O)c2cccc(-c3noc(C)n3)c2)nc1C [Compound 27, Ethyl 2-Methyl-6-(3-(3-(5-methyl-1,2,4-oxadiazol-3-yl)benzamido)propanamido)nicotinate]
LE [1]: 0.22
LLE [2]: 2.5
IC50 [3]: 11.5 µM
fold reduction in HSET potency (relative to 13): greater than 180 fold

Compound: CCOC(=O)c1sc(NC(=O)CNC(=O)c2cccc(-c3noc(C)n3)c2)nc1C [Compound 21, Ethyl 4-Methyl-2-(2-(3-(5-methyl-1,2,4-oxadiazol-3-yl)benzamido)acetamido)thiazole-5-carboxylate]
HSET inhibitory activity (in words): abolished the HSET activity
IC50 [3]: > 200 µM

Compound: CCOC(=O)c1sc(NC(=O)CCNC(=O)c2ccccc2C)nc1C [Compound 3, Ethyl 4-methyl-2-(3-(2-methylbenzamido)propanamido)thiazole-5-carboxylate]
inhibition at 200 µM (200μM compound, 3 μM ATP, single determination): 52%
fold reduction in HSET potency (relative to 2): seventy-fold

Compound: CCOC(=O)c1sc(NC(=O)CCNC(=O)c2cccc(-c3n[nH]c(C)n3)c2)nc1C [Compound 15, Ethyl 4-Methyl-2-(3-(3-(5-methyl-1H-1,2,4-triazol-3-yl)benzamido)propanamido)thiazole-5-carboxylate]
HSET inhibitory activity (in words): eliminated potency
IC50 [6]: > 200 µM

Compound: CCNC(=O)c1sc(NC(=O)CCNC(=O)c2cccc(C)c2)nc1C [Compound 7, N-Ethyl-4-methyl-2-(3-(3-methylbenzamido)propanamido)thiazole-5-carboxamide]
HSET inhibitory activity (in words): no activity
IC50 [6]: > 200 µM

Reference: article PMC9969401, “Discovery of 2-(3-Benzamidopropanamido)thiazole-5-carboxylate Inhibitors of the Kinesin HSET (KIFC1) and the Development of Cellular Target Engagement Probes” (Journal of Medicinal Chemistry, 2023)
